Assay results as given in US9464326B2, “Total and phosphorylated IL-1 receptor-associated kinase-1 and IL-1 receptor-associated kinase-4 as a biomarker for cancer progression and chemotherapy resistance” (University of Maryland, Baltimore, priority 2012, dated 2016).

How the values were obtained:
[1] = tested on: A375 cells; experiment: Milliplex cytokine/chemokine array; format: cell-based, human
Method: FIG. 7. TLR and TLR signaling-related protein expression profiles on melanoma cell lines. (A) The expression levels of TLR1-TLR10 and various TLR-related proteins were examined by Western blot in samples from human melanoma cell lines. (B) The TLR1-TLR2 ligand Pam3CysK4 was added to A375 cells for 48 hrs. Cytokine and chemokine production by was determined using a Milliplex cytokine/chemokine array. (C) IRAK-1,-4 inhibitor or vehicle alone (DMSO) was added to melanoma cells for 48 hrs. The level of phosphorylated and non-phosphorylated p65 subunit of NF-KB was determined by Western blot. (D) Cytokine and chemokine levels in the supernatant A375 cell culture were examined using a Milliplex cytokine/chemokine array 48 hours after adding IRAK-1,-4 inhibitor or DMSO. ANOVA; **P<0.001, *P<0.05.
FIG. 19. Inhibiting IRAK-1/-4 abrogates the effects of TLR1-TLR2 agonist in melanoma cells. A375 cells were cultured in the presence or absence of TLR1-TLR2 ligand Pam3CysK4 (2.5 μg/ml) and in the presence of the IRAK-1/-4 inhibitor (10 μM) or vehicle control DMSO. Cytokine and chemokine production by was determined using a Milliplex cytokine/chemokine array 48 hrs. later.
A375 cells were cultured in the presence or absence of TLR1-TLR2 ligand Pam3CysK4 (2.5 μg/ml) and in the presence of the IRAK-1,-4 inhibitor (10 μM) or vehicle control DMSO. (FIG. 19). Therefore, activation of IRAK-1,-4 signaling on melanoma cells in vivo might contribute to cancer progression by inducing the expression of various chemokines and cytokines beneficial to cancer cell survival, division, and/or angiogenesis.

[2] = tested on: CCRF-CEM cells; experiment: CCRF-CEM T-ALL numbers in NSG mice (flow cytometry); format: in vivo
Method: CCRF-CEM (2×10^6) cells were injected intravenously (i.v.) into female NOD.Cg-Prkdc^scid Il2rg^tm1WJl/SzJ IL2RG (NSG) mice (Jackson Laboratories, Bar Harbor, Me.). […] In some experiments mice were injected i.v. with TLR1-TLR2 ligand (2.5 μg) two days after injecting cells. In other experiments mice were injected intraperitoneally (i.p.) with IRAK-1,-4 inhibitor (10 mg/kg) 3, 6, and 9 days (CCRF-CEM cells) or 7, 10, and 13 days (patient T-ALL cells) after detecting CD7^+ T-ALL cells in circulation. The numbers of T-ALL cells in the bone marrow, spleen, liver, and in circulation were determined by staining cells with anti-human CD7 and/or CD5. To compare T-ALL numbers between groups, 10 μl of calibration microbeads (BD Pharmingen) were added to 50 μl of blood (or marrow or spleen suspensions) and the flow cytometry instrument gates were set to count a constant number of beads.
The therapeutic efficacy of IRAK-1,-4 inhibitor was examined in mice with T-ALL. NSG mice were injected (i.v.) with the human T-ALL cell line CCRF-CEM. Mice were intraperitoneally (i.p.) injected with IRAK-1,-4 inhibitor 3, 6, and 9 days after T-ALL cells were detected in the circulation. The number of T-ALL cells in various tissues was determined four days after the final IRAK-1,-4 inhibitor injection by staining cells with human-specific anti-CD7 antibodies and analyzing by flow cytometry. The number of T-ALL cells was counted after normalization to calibration beads.
The physiological significance of activating TLR-IRAK signaling and T-ALL expansion was examined in vivo. NSG mice harboring CCRF-CEM cells were injected with either TLR1-TLR2 ligand or PBS. One week later the numbers of CD5+CD7+ T-ALL cells in bone marrow and spleen were determined by flow cytometry (FIG. 5, left). To normalize the T-ALL cell count between mice, an equal volume of calibration beads was added to blood samples and the instrument gates were set to count a constant number of beads.

[3] = tested on: T-ALL cells from patients; experiment: Proliferation (3H-thymidine) of patient T-ALL cells; format: cell-based, human
Source text: CCRF-CEM, CEM/C1, CEM/C2, CEM-C7, Jurkat, Loucy, Molt-4, HSB-2, SUP-T1, Hut 78, HH, Hut 102, MO, and H9 T-leukemia and T-lymphoma cell lines were purchased from the American Type Culture Collection (Manassas, Va., USA). All of the cell lines were initially expanded and cryopreserved within one month of receipt. Cells were typically used for 6 months at which time a fresh vial of cryopreserved cells was used. Total T cells from healthy donors were isolated via negative selection followed by positive selection using a CD3+ selection kit (Invitrogen, Carlsbad, Calif.). T cells were isolated from patients with T-ALL bone marrow or peripheral blood samples containing more than 70% leukemia cells using a CD2+ isolation kit (STEMCELL Technologies, Vancouver, Canada). All tissues were collected under institutional IRB-approved protocols and all participants gave written informed assent/consent. For in vitro experiments, T-ALL cells were cultured in AIM-V medium supplemented with 20% human AB serum in the presence of recombinant human stem cell factor (50 ng/mL; Amgen, Thousand Oaks, Calif.), insulin (20 nM; Sigma-Aldrich, St Louis, Mo., USA) and IL-7 (50 ng/mL; R&D Systems, Minneapolis, Minn., USA). […]
Cells were cultured in a 96-well plate (Corning Costar, Corning, N.Y., USA) with various concentrations of TLR ligands 1-9, starting at 10 μg/ml, in a final volume of 200 ul. […] After this time point, cells were harvested with a Packard Filter-Mate-96 cell harvester (Perkin Elmer, Waltham, Mass., USA) and counted on Packard Top Count-NXT (Perkin Elmer, Waltham, Mass., USA). Results were expressed as average counts per minute (cpm). […] Forty-eight hours later, proliferation (±SD) was determined by ^3H-thymidine incorporation. Alternatively, apoptosis was measured by flow cytometry after staining cells with Annexin-V (BD Pharmingen, San Diego, Calif., USA) and propidium iodide (Sigma). Cell number was counted under microscopy by staining cells with trypan blue.

[4] = 10 mg/kg i.p. days 3, 6, 9, FIG. 17
[5] = 10 mg/kg i.p. days 3, 6, 9, vs DMSO or untreated, p<0.05
[6] = TLR1-TLR2 ligand 2.5 μg i.v. vs PBS, p<0.05, FIG. 5

| Molecule | production of VEGF, CXCLI, MCP 1, PDGF-A and FGF-2 ([1]; 48 hrs, absence of TLR agonists, p<0.05, FIG. 7D) | cytokine/chemokine effects of TLR1-TLR2 agonist ([1]; IRAK-1,-4 inhibitor 10 μM with Pam3CysK4 2.5 μg/ml, FIG. 19) | T-ALL cell numbers in the liver [2, 4] | T-ALL cell numbers in the spleen [2, 4] | number of CD7+ T-ALL cells in circulation [2, 5] | number of CD7+ T-ALL cells in the bone marrow [2, 5] | proliferation of patient T-ALL samples ([3]; samples with phosphorylated IRAK-1,-4, vs equal volume DMSO, FIG. 6D) | changes in levels of MCP-I, IL-6 and fractalkine ([1]; 48 hrs, FIG. 7B) | levels of GM-CSF and IP-10 ([1]; 48 hrs, p<0.001, FIG. 7B) | levels of cytokines and chemokines including VEGF, CXCLI and IL-8 ([1]; 48 hrs, p<0.05, FIG. 7B) | T-ALL cell number (CD5+CD7+) in the bone marrow [2, 6] | T-ALL cell number (CD5+CD7+) in the spleen [2, 6] | proliferation of patient T-ALL samples ([3]; five T-ALL patient samples, TLR1-TLR2 ligand, p<0.01, FIG. 6B) | concentrations giving increased proliferation ([3]; responding T-ALL patient samples, FIG. 6B) |
| --- | --- | --- | --- | --- | --- | --- | --- | --- | --- | --- | --- | --- | --- | --- |
| O=C(Nc1nc2ccccc2n1CCN1CCOCC1)c1cccc([N+](=O)[O-])c1 [IRAK-1,-4 inhibitor] | significantly reduced | decreased the effects of TLR1-TLR2 agonist | only moderately reduced | only moderately reduced | significantly reduced | significantly reduced | Every sample exhibited reduced proliferation |  |  |  |  |  |  |  |
| tripalmitoyl-S-(bis(palmitoyloxy)propyl)-Cys-Ser-(Lys)3-Lys [Pam3Cysk4] |  |  |  |  |  |  |  | not statistically significant | significantly increased | significantly augmented | significantly augmented | significantly augmented | Two of five samples exhibited increased proliferation | above 1.25 μg/ml |
